Source: PubChem BioAssay (NCI)
“And” between values parts separate entries of the source, which are not always exact repeats. Equal values may be shown once.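 Five compound concentrations were applied to cells in 96-well plates for 48 hours; endpoints were derived by simple linear interpolation of the resulting dose-response curve. GI50: concentration for 50% inhibition of growth. The concentration for full growth arrest is given as TGI.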

Columns and labels:
Assay in all cases: growth of human tumour cells (NCI), 48 h
ACHN renal = test system: ACHN renal
OVCAR-8 ovarian = test system: OVCAR-8 ovarian
A549 NSCLC = test system: A549 NSCLC
SF-539 CNS = test system: SF-539 CNS
UACC-257 melanoma = test system: UACC-257 melanoma
HOP-92 NSCLC = test system: HOP-92 NSCLC
HOP-18 NSCLC = test system: HOP-18 NSCLC
COLO 205 colon = test system: COLO 205 colon
DMS 114 small cell lung = test system: DMS 114 small cell lung
DMS 273 small cell lung = test system: DMS 273 small cell lung
MDA-MB-435 = test system: MDA-MB-435

## CC1NCCc2c1[nH]c1cc(O)ccc21 (stereo unspecified)
ACHN renal
  TGI: > 100 µM
OVCAR-8 ovarian
  TGI: > 100 µM
A549 NSCLC
  TGI: > 100 µM
SF-539 CNS
  TGI: > 100 µM
UACC-257 melanoma
  TGI: > 100 µM
HOP-92 NSCLC
  TGI: > 100 µM
HOP-18 NSCLC
  TGI: > 100 µM
COLO 205 colon
  TGI: > 100 µM
DMS 114 small cell lung
  TGI: > 100 µM

## CC(=O)OCC1OC(n2c(=S)n(-c3ccccc3)c(=O)c3cc(Br)ccc32)C(OC(C)=O)C(OC(C)=O)C1OC(C)=O (stereo unspecified)
ACHN renal
  TGI: > 100 µM
OVCAR-8 ovarian
  TGI: > 100 µM
A549 NSCLC
  TGI: > 100 µM
SF-539 CNS
  TGI: > 100 µM
UACC-257 melanoma
  TGI: > 100 µM
HOP-92 NSCLC
  GI50: 22.1 µM and > 100 µM
  TGI: > 100 µM
DMS 273 small cell lung
  TGI: > 100 µM
COLO 205 colon
  TGI: > 100 µM
DMS 114 small cell lung
  TGI: > 100 µM

## N#CSCC1CC(O)(c2ccccc2)CC(c2ccc(Cl)cc2)O1 (stereo unspecified)
ACHN renal
  GI50: 2780 nM
  TGI: 8.25 µM
OVCAR-8 ovarian
  GI50: 1.98 µM
  TGI: 3.94 µM
A549 NSCLC
  GI50: 3.74 µM
  TGI: 17.3 µM
SF-539 CNS
  GI50: 1540 nM
  TGI: 3.32 µM
UACC-257 melanoma
  GI50: 3.29 µM
  TGI: 9.32 µM
MDA-MB-435
  GI50: 1.9 µM
  TGI: 4.8 µM
HOP-92 NSCLC
  GI50: 2.21 µM
  TGI: 5.58 µM
COLO 205 colon
  GI50: 1.91 µM
  TGI: 3.92 µM

## CCOC(=O)C1=C(C)N(NC(=O)OC)C2(N)N(NC(=O)OC)C(C)=C(C(=O)OCC)C12C#N (stereo unspecified)
ACHN renal
  TGI: > 100 µM
OVCAR-8 ovarian
  TGI: > 100 µM
A549 NSCLC
  TGI: > 100 µM
SF-539 CNS
  TGI: > 100 µM
UACC-257 melanoma
  TGI: > 100 µM
DMS 273 small cell lung
  TGI: > 100 µM
DMS 114 small cell lung
  TGI: > 100 µM

## CC(C)C[C@H]1C(=O)N2CCC[C@H]2[C@]2(O)O[C@](NC(=O)[C@@H]3C=C4c5cccc6[nH]c(Br)c(c56)C[C@H]4N(C)C3)(C(C)C)C(=O)N12
ACHN renal
  TGI: > 100 µM
OVCAR-8 ovarian
  TGI: > 100 µM
A549 NSCLC
  TGI: > 100 µM
SF-539 CNS
  TGI: > 100 µM
UACC-257 melanoma
  TGI: > 100 µM
MDA-MB-435
  TGI: > 100 µM
HOP-92 NSCLC
  TGI: > 100 µM
COLO 205 colon
  TGI: 23.5 µM

## Cc1cccc2c(N=Nc3ccccc3[N+](=O)[O-])c(O)[nH]c12
ACHN renal
  TGI: 18.8 µM
OVCAR-8 ovarian
  TGI: > 38.2 µM
A549 NSCLC
  TGI: > 61.7 µM
SF-539 CNS
  TGI: 8.96 µM
UACC-257 melanoma
  TGI: > 53.5 µM
MDA-MB-435
  TGI: > 100 µM
HOP-92 NSCLC
  TGI: 8.16 µM
COLO 205 colon
  TGI: > 63.5 µM

## Cc1ccc(S(=O)(=O)NNC(C[N+](=O)[O-])c2ccccc2)cc1 (stereo unspecified)
ACHN renal
  TGI: 40.9 µM
OVCAR-8 ovarian
  TGI: 46.1 µM
A549 NSCLC
  TGI: > 100 µM
SF-539 CNS
  TGI: 81.5 µM
UACC-257 melanoma
  TGI: 37.5 µM
MDA-MB-435
  TGI: 11.2 µM
HOP-92 NSCLC
  TGI: > 100 µM
COLO 205 colon
  TGI: 30.8 µM

## Cc1cc(S(=O)(=O)Nc2nc3ccccc3[nH]2)c(SCc2ccccc2)cc1Cl
ACHN renal
  GI50: 32800 nM
  TGI: > 100 µM
OVCAR-8 ovarian
  GI50: 37.5 µM
  TGI: > 100 µM
A549 NSCLC
  GI50: > 100 µM
  TGI: > 100 µM
SF-539 CNS
  GI50: 19800 nM
  TGI: 52.8 µM
UACC-257 melanoma
  GI50: > 100 µM
  TGI: > 100 µM
MDA-MB-435
  GI50: > 100 µM
  TGI: > 100 µM
HOP-92 NSCLC
  GI50: 62.2 µM
  TGI: > 100 µM
COLO 205 colon
  GI50: > 100 µM
  TGI: > 100 µM

## CN(C)CCCN1c2ccc(O)cc2Sc2ccc(Cl)cc21
ACHN renal
  TGI: 28.1 µM
OVCAR-8 ovarian
  TGI: 30.5 µM
A549 NSCLC
  TGI: 28.6 µM
SF-539 CNS
  TGI: 28.7 µM
UACC-257 melanoma
  TGI: 4.14 µM
MDA-MB-435
  TGI: 21.1 µM
HOP-92 NSCLC
  TGI: 17.2 µM
COLO 205 colon
  TGI: 39.3 µM

## CNC1=CC(=O)C2=C(C1=O)C1C3=C(C(=O)C(Br)=C(OC)C3=O)C2c2ccccc21 (stereo unspecified)
ACHN renal
  GI50: 1740 nM
  TGI: 6.21 µM
OVCAR-8 ovarian
  GI50: 3.87 µM
  TGI: > 50 µM
A549 NSCLC
  GI50: 20.6 µM
  TGI: > 50 µM
SF-539 CNS
  GI50: 1230 nM
  TGI: 2.75 µM
UACC-257 melanoma
  GI50: 4.58 µM
  TGI: > 50 µM
MDA-MB-435
  GI50: 6.92 µM
  TGI: 17.1 µM
HOP-92 NSCLC
  GI50: 1.24 µM
  TGI: 2.97 µM
COLO 205 colon
  GI50: 9.89 µM
  TGI: 22 µM
